The values below are quoted from earlier work in patent publication US20080171724A1, “Phosphonate Derivatives of Mycophenolic Acid” (GILEAD SCIENCES, INC., priority 2004, published 2008).

For the series the following is noted: after oral or intravenous administration; converted to active metabolite mycophenolic acid.

For the molecule `COc1c(C)c2c(c(O)c1C/C=C(\C)CCC(=O)OCCN1CCOCC1)C(=O)OC2` [Mycophenolate mofetil], the “fraction of the drug cleared by glucuronidation and excreted in the urine” value is “over 90%”.
